# Laboratory results taken from publication PMC3728144, “Synthesis, reactions and biological activity of some new bis-heterocyclic ring compounds containing sulphur atom” (Chemistry Central Journal, 2013).
# Like-named read-outs stand apart in the source and are kept apart here.
# Legend:
# [1] = tested on: PC3 cells (Prostrate Cancer); assay: Anticancer (cytotoxic) activity, MTT colorimetric assay; assay type: cell-based; details: compounds 1-30 μM, n = 3, read-out: Anticancer activity (PC-3 cell line) IC50 ± SEM
# Procedure: (§1) Various In vitro assays were performed to the assessment of biological activity of newly synthesized compounds. Results were presented here as means ± standard error from triplicate (n = 3) observation. IC50 values were calculated by using EZ-FIT, Enzyme kinetics software by Perrella Scientific.
# Cytotoxic activity of compounds was evaluated in 96-well flat-bottomed microplates by using the standard MTT (3-[4, 5-dimethylthiazole-2-yl]-2, 5-diphenyl-tetrazolium bromide, MP) colorimetric assay. For this purpose, PC3 cells (Prostrate Cancer) were cultured in Dulbecco’s Modified Eagle Medium, supplemented with 10% of fetal bovine serum (FBS, PAA), 100 IU/mL of penicillin and 100 μ g/mL of streptomycin in 75 cm^2 flasks, and kept in 5% CO2 incubator at 37°C. Exponentially growing cells were harvested, counted with haemocytometer and diluted with a particular medium with 5% FBS. Cell culture with the concentration of 1x10^5 cells/mL was prepared and introduced (100 μL/well) into 96-well plates. After overnight incubation, medium was removed and 200 μL of fresh medium was added with different concentrations of compounds (1-30 μM). Stock solution, 20 mM of compounds were prepared in 100% DMSO and final concentration of DMSO at 30 μM is 0.15% .After 48 hrs, 200 μL MTT (0.5 mg/mL) was added to each well and incubated further for 4 hrs. Subsequently, 100 μL of DMSO was added to each well. The extent of MTT reduction to formazan within cells was calculated by measuring the absorbance at 570 nm, using a micro plate reader (Spectra Max plus, Molecular Devices, CA, USA). The cytotoxicity was recorded as concentration causing 50% growth inhibition (IC50) for PC3 cells. The percent inhibition was calculated by using the following formula:
# % inhibition = 100-((mean of O.D of test compound – mean of O.D of negative control)/ (mean of O.D of positive control – mean of O.D of negative control)*100).
# The results (% inhibition) were processed by using Soft- Max Pro software (Molecular Device, USA).
# β-Glucuronidase = target: T1, β-Glucuronidase (Escherichia coli, UniProt P05804); assay: In vitro β-glucuronidase inhibition assay; assay type: biochemical; details: p-nitrophenyl-β-D-glucuronide substrate, 37°C, 405 nm; NA = not active, failed to show 50% or more inhibition at 500 μM or more; read-out: ß-Glucuronidase inhibition IC50 ± SEM
# T1 construct: purchased Sigma Aldrich G7396-25KU
# T1 sequence (P05804 whole entry): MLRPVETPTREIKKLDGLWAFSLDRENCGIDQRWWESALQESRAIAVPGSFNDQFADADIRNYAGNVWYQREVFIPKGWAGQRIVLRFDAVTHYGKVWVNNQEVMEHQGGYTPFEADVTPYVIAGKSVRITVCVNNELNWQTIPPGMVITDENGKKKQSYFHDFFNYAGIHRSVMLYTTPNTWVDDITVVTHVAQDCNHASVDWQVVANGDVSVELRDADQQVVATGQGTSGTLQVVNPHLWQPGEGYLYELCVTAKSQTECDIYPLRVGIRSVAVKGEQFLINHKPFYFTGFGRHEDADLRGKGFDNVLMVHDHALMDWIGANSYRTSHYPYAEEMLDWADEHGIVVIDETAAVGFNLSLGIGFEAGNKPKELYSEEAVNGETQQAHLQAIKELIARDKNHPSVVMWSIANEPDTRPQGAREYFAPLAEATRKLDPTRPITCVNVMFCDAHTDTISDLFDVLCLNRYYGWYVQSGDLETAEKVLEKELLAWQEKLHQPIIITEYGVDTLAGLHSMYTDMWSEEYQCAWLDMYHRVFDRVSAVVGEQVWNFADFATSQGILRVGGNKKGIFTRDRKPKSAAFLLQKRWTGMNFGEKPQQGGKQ
# Procedure: as §1
# β-Glucuronidase inhibitory activity was determined by the spectrophotometric method by measuring the absorbance at 405 nm of p-nitrophenol formed from the substrate (p-nitrophenyl-β-D-glucuronide N1627-250 mg (Sigma Aldrich). The total reaction volume was 250 μL. The compound (5 μL) was dissolved in DMSO (100%), which becomes 2% in the ultimate assay (250 μL) and the similar conditions were used for standard (D-saccharic acid 1, 4-lactone, Sigma Aldrich). The reaction mixture contained 185 μL of 0.1 M acetate buffer, 5 μL of test compound solution, 10 μL of (1U) enzyme solution (G7396-25KU, Sigma Aldrich) was incubated at 37°C for 30 min. The plates were read on a multiplate reader (SpectraMax plus 384) at 405 nm after the addition of 50 μL of 0.4 mM p-nitrophenyl-β-D-glucuronide. All assays were performed in triplicate. IC50 Values were calculated by using EZ-Fit software (Perrella Scientific Inc., Amherst, MA, U.S.A.). These values are the mean of three independent readings.
# [2] = DPPH radical scavenging antioxidant assay; details: DPPH 300 μM, half an hour at 37°C, 515 nm, NA = not active, failed to show 50% or more inhibition at 500 μM or more, read-out: DPPH radical scavenging assay IC50 ± SEM
# Procedure: as §1
# Test samples were allowed to react with stable free radical, 1, 1-diphenyl-2-picrylhydrazyl radical (DPPH, Wako Chemicals USA, Inc.)) for half an hour at 37°C. Various concentrations of test samples (prepared in DMSO) were incubated with DPPH (300 μM; prepared in ethanol). After incubation, decrease in absorption was measured at 515 nm using a microplate reader (SpectraMax plus 384). Percentage radical scavenging activity (% RSA) by samples was determined, in comparison with a DMSO- treated control group.% Radical scavenging activity was calculated by using the formula given in statistical analysis section.
SMILES,"IC50 ([1]; Homo sapiens, PC-3, 48 h) [µM]",melting point [°C],other results
"Cc1c(C2=C(C#N)C=NC2)sc2sc(C3=C(C#N)C=NC3)c(-c3ccccc3)c12 [Compound 5, 3-(5-(4-Cyano-2H-pyrrol-3-yl)-3-methyl-4-phenylthieno[2,3-b]thiophen-2-yl)-2H-pyrrole-4-carbonitrile]",> 30,> 320,IC50 (β-Glucuronidase): 0.13 ± 0.019 µM
"Cc1c(-c2csc(C(C#N)=Cc3ccc(Cl)cc3)n2)sc2sc(-c3csc(C(C#N)=Cc4ccc(Cl)cc4)n3)c(-c3ccccc3)c12 [Compound 4b, 3-(4-Chlorophenyl)-2-(4-(5-(2-(2-(4-chlorophenyl)-1-cyanovinyl)thiazol-4-yl)-3-methyl-4-phenylthieno[2,3-b]thiophen-2-yl)thiazol-2-yl)acrylonitrile]",> 30,167 to 168,
"Cc1c(C(=O)CNc2ccccc2)sc2sc(C(=O)CNc3ccccc3)c(-c3ccccc3)c12 [Compound 9a, 1,1'-(3-Methyl-4-phenylthieno[2,3-b]thiophene-2,5-diyl)bis(2-(phenylamino)ethanone)]",> 30,> 320,
"Cc1c(C(=O)CNc2ccc(Cl)cc2)sc2sc(C(=O)CNc3ccc(Cl)cc3)c(-c3ccccc3)c12 [Compound 9b, 1,1'-(3-Methyl-4-phenylthieno[2,3-b]thiophene-2,5-diyl)bis(2-(4-chlorophenylamino)ethanone)]",> 30,> 320,
CC(=O)N[C@@H](CS)C(=O)O [N-Acetylcysteine],,,IC50 ([2]; listed as N-acetylcystein): 106 ± 1.1 µM; IC50 [2]: 106 µM
"Cc1c(-c2coc(N)n2)sc2sc(-c3coc(N)n3)c(-c3ccccc3)c12 [Compound 8a, 4,4'-(3-Methyl-4-phenylthieno[2,3-b]thiophene-2,5-diyl)dioxazol-2-amine]",> 30,> 320,IC50 (β-Glucuronidase): 1.2 ± 0.0785 µM
"COc1ccc(C=C(C#N)c2nc(-c3sc4sc(-c5csc(C(C#N)=Cc6ccc(OC)cc6)n5)c(-c5ccccc5)c4c3C)cs2)cc1 [Compound 4c, 2-(4-(5-(2-(1-Cyano-2-(4-methoxyphenyl)vinyl)thiazol-4-yl)-3-methyl-4-phenylthieno[2,3-b]thiophen-2-yl)thiazol-2-yl)-3-(4-methoxyphenyl)acrylonitrile]",,238 to 239,
"O=C(O)[C@@H](O)[C@H]1OC(=O)[C@H](O)[C@H]1O [D-Saccharic acid 1,4-lactone, reference compound]",,,IC50 (β-Glucuronidase): 45.8 µM
"Cc1c(-c2cn3c(nc4ccccc43)[nH]2)sc2sc(-c3cn4c(nc5ccccc54)[nH]3)c(-c3ccccc3)c12 [Compound 6, 5,5'-(3-Methyl-4-phenylthieno[2,3-b]thiophene-2,5-diyl)bis(1H-imidazo[1,2a]benzimidazole)]",,> 320,
"Cc1c(-c2csc(C(C#N)=Cc3ccccc3)n2)sc2sc(-c3csc(C(C#N)=Cc4ccccc4)n3)c(-c3ccccc3)c12 [Compound 4a, 2-(4-(5-(2-(1-Cyano-2-phenylvinyl)thiazol-4-yl)-3-methyl-4-phenylthieno[2,3-b]thiophen-2-yl)thiazol-2-yl)-3-phenylacrylonitrile]",> 30,220 to 221,
"Cc1c(-c2c[nH]c(N)n2)sc2sc(-c3c[nH]c(N)n3)c(-c3ccccc3)c12 [Compound 8c, 4,4'-(3-Methyl-4-phenylthieno[2,3-b]thiophene-2,5-diyl)bis(1H-imidazol-2-amine)]",,> 320,
"Cc1c(-c2csc(CC#N)n2)sc2sc(-c3csc(CC#N)n3)c(-c3ccccc3)c12 [Compound 3, 2,2'-(4,4'-(3-Methyl-4-phenylthieno[2,3-b]thiophene-2,5-diyl)bis(thiazole-4,2-diyl)) diacetonitrile]",> 30,> 320,
"Cc1c(-c2csc(N)n2)sc2sc(-c3csc(N)n3)c(-c3ccccc3)c12 [Compound 8b, 4,4'-(3-Methyl-4-phenylthieno[2,3-b]thiophene-2,5-diyl)dithiazol-2-amine]",24.2 ± 0.29,260 to 261,
"COc1cccc2c1C(=O)c1c(O)c3c(c(O)c1C2=O)C[C@@](O)(C(=O)CO)C[C@@H]3O[C@H]1C[C@H](N)[C@H](O)[C@H](C)O1 [Doxorubicin, reference compound]",0.912 ± 0.12,,IC50 ([1]; 48 hrs): 0.91 µM
"Cc1c(-c2cn3[nH]cnc3n2)sc2sc(-c3cn4[nH]cnc4n3)c(-c3ccccc3)c12 [Compound 7, 5,5'-(3-Methyl-4-phenylthieno[2,3-b]thiophene-2,5-diyl)bis(1H-imidazo[1,2-b] [1,2, 4]triazole)]",,> 320,
